Measured values as given in patent publication US7186732B2, “Non-imidazole aryloxyalkylamines” (Ortho-McNeil Pharmaceutical, Inc., priority 2000, dated 2007).

What follows are molecules tested against T1, human histamine H3 receptor (Homo sapiens, UniProt Q9Y5N1) (assay: [3H]-N-methylhistamine binding to membranes of histamine H3 receptor-expressing SK-N-MC cells). Settings: not given.
T1 construct: expressed in transfected cells; membranes prepared from cell pellets
Description: Thus in the present invention receptor binding was determined using the human histamine H3 receptor (See Lovenberg et al Mol. Pharmacol. 1999, 1107). Screening using the human receptor is particularly important for the identification of new therapies for the treatment of human disease. Conventional binding assays for example are determined using rat synaptosomes (Garbarg et al J. Pharmacol. Exp. Ther. 1992, 263, 304), rat cortical membranes (West et al Mol. Pharmacol. 1990, 610), and guinea pig brain (Korte et al Biochem. Biophys. Res. Commun. 1990, 978).
Transfection of Cells with Human Histamine Receptor
A 10 cm tissue culture dish with a confluent monolayer of SK-N-MC cells was split two days prior to transfection. Using sterile technique the media was removed and the cells were detached from the dish by the addition of trypsin. One fifth of the cells were then placed onto a new 10 cm dish. Cells were grown in a 37° C. incubator with 5% CO2 in Minimal Essential Media Eagle with 10% Fetal Bovine Serum. After two days cells were approximately 80% confluent. These were removed from the dish with trypsin and pelleted in a clinical centrifuge. The pellet was then re-suspended in 400 μL complete media and transferred to an electroporation cuvette with a 0.4 cm gap between the electrodes (Bio-Rad #165–2088). One microgram of supercoiled H3 receptor cDNA was added to the cells and mixed. The voltage for the electroporation was set at 0.25 kV, the capacitance was set at 960 μF. After electroporation the cells were diluted into 10 mL complete media and plated onto four 10 cm dishes. Because of the variability in the efficiency of electroporation, four different concentrations of cells were plated. The ratios used were; 1:20, 1:10, 1:5, with the remainder of the cells being added to the fourth dish. The cells were allowed to recover for 24 hours before adding the selection media (complete media with 600 μg/mL G418). After 10 days dishes were analyzed for surviving colonies of cells. Dishes with well isolated colonies were used. Cells from individual colonies were isolated and tested. SK-N-MC cells were used because they give efficient coupling for inhibition of adenylate cyclase. The clones that gave the most robust inhibition of adenylate cyclase in response to histamine were used for further study.
[^3H]-N-methylhistamine Binding
Cell pellets from histamine H3 receptor-expressing SK-N-MC cells were homogenized in 20 mM TrisHCI/0.5 mM EDTA. Supernatants from a 800 g spin were collected, recentrifuged at 30,000 g for 30 minutes. Pellets were re-homogenized in 50 mM Tris/5 mM EDTA (pH 7.4). Membranes were incubated with 0.8 nM [^3H]-N-methylhistamine plus/minus test compounds for 45 min at 25° C. and harvested by rapid filtration over GF/C glass fiber filters (pretreated with 0.3% polyethylenimine) followed by four washes with ice cold buffer. Filters were dried, added to 4 mL scintillation cocktail and then counted on a liquid scintillation counter. Non-specific binding was defined with 10 μM histamine. The pKi values were calculated based on a Kd of 800 pM and a ligand concentration ([L]) of 800 pM according to the formula: Ki=(IC50)/(1+([L]/(Kd))

T1 sequence (Q9Y5N1 whole entry): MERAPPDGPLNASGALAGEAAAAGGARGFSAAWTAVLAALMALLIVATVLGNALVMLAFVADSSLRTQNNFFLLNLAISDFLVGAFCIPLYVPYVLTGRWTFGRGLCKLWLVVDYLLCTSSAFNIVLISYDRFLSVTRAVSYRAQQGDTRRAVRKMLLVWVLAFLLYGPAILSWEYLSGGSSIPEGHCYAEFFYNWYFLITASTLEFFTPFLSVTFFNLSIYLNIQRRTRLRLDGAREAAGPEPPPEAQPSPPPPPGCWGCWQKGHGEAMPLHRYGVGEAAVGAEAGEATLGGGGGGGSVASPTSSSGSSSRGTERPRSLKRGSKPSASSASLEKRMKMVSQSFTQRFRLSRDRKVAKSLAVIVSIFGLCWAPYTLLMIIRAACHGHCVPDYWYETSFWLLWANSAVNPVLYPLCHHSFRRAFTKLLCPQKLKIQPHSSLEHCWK

Compound	Ki
OC1CCN(Cc2ccc(OCCCN3CCCCC3)cc2)CC1 [Example 89, 1-[4-(3-Piperidin-1-yl-propoxy)-benzyl]-piperidin-4-ol]	0.6 nM

Same assay, conditions: 0.8 nM [3H]-N-methylhistamine, 45 min at 25° C., SK-N-MC cell membranes; Ki=(IC50)/(1+([L]/(Kd)); read-out: Ki

Ki	Compound
0.7 nM	c1cc(OCCCN2CCCCC2)ccc1CN1CCOCC1 [Example 94, 4-[4-(3-Piperidin-1-yl-propoxy)-benzyl]-morpholine]
89 nM	Clc1ccc(NCc2cccc(OCCCN3CCCCC3)c2)cc1 [Example 68, (4-Chloro-phenyl)-[3-(3-piperidin-1-yl-propoxy)-benzyl]-amine]
23 nM	Clc1ccc(NCc2ccc(OCCCN3CCCCC3)cc2)cc1 [Example 85, (4-Chloro-phenyl)-[4-(3-piperidin-1-yl-propoxy)-benzyl]-amine]
1.3 nM	CCN(Cc1ccncc1)Cc1ccc(OCCCN2CCCCC2)cc1 [Example 79, Ethyl-[4-(3-piperidin-1-yl-propoxy)-benzyl]-pyridin-4-ylmethyl-amine]
1.7 nM	CN(CCc1ccccc1)Cc1ccc(OCCCN2CCCCC2)cc1 [Example 83, Methyl-phenethyl-[4-(3-piperidin-1-yl-propoxy)-benzyl]-amine]
1.4 nM	Clc1ccc(N2CC3CC2CN3Cc2ccc(OCCCN3CCCCC3)cc2)cc1 (stereo not shown) [Example 55, 2-(4-Chloro-phenyl)-5-[4-(3-piperidin-1-yl-propoxy)-benzyl]-2,5-diaza-bicyclo[2.2.1]heptane]
5.5 nM	c1ccc(CN(CCCn2cccc2-c2ccc(OCCCN3CCCCC3)cc2)Cc2ccccc2)cc1 [Example 92, Dibenzyl-(3-{2-[4-(3-piperidin-1-yl-propoxy)-phenyl]-pyrrol-1-yl}-propyl)-amine]
2 nM	CC(C)N1CCN(Cc2ccc(OCCCN3CCCCC3)cc2)CC1 [Example 88, 1-Isopropyl-4-[4-(3-piperidin-1-yl-propoxy)-benzyl]-piperazine]
1.8 nM	C(=C1CCN(Cc2cccc(OCCCN3CCCCC3)c2)CC1)c1ccccc1 [Example 71, 1-{3-[3-(4-Benzylidene-piperidin-1-ylmethyl)-phenoxy]-propyl}-piperidine]
3 nM	CN(CCc1ccccc1)Cc1cccc(OCCCN2CCCCC2)c1 [Example 74, Methyl-phenethyl-[3-(3-piperidin-1-yl-propoxy)-benzyl]-amine]
0.5 nM	c1cc(-n2nnnc2SCCCN2CCCCC2)ccc1OCCCN1CCCCC1 [Example 32, 1-(3-{4-[5-(3-Piperidin-1-yl-propylsulfanyl)-tetrazol-1-yl]-phenoxy}-propyl)-piperidine]
0.8 nM	c1ccc(NC2CCN(Cc3ccc(OCCCN4CCCCC4)cc3)CC2)nc1 [Example 41, {1-[4-(3-Piperidin-1-yl-propoxy)-benzyl]-piperidin-4-yl}-pyridin-2-yl-amine]
1 nM	NC(=O)C1CCN(Cc2ccc(OCCCN3CCCCC3)cc2)CC1 [Example 57, 1-[4-(3-Piperidin-1-yl-propoxy)-benzyl]-piperidine-4-carboxylic acid amide]
1.1 nM	CN(CCc1ccccc1)C1CCN(Cc2ccc(OCCCN3CCCCC3)cc2)CC1 [Example 42, Methyl-phenethyl-{1-[4-(3-piperidin-1-yl-propoxy)-benzyl]-piperidin-4-yl}-amine]
1 nM	c1cc(OCCCN2CCCCC2)ccc1CNC1CC1 [Example 50, Cyclopropyl-[4-(3-piperidin-1-yl-propoxy)-benzyl]-amine]
5 nM	c1cc(OCCN2CCCCC2)ccc1CN1CCCCC1 [Example 20, 1-[2-(4-Piperidin-1-ylmethyl-phenoxy)-ethyl]-piperidine]
1 nM	c1ccc2c(c1)CCC2NCc1ccc(OCCCN2CCCCC2)cc1 (stereo not shown) [Example 47, Indan-1-yl-[4-(3-piperidin-1-yl-propoxy)-benzyl]-amine]
1500 nM	Clc1ccc(NCc2ccccc2OCCCN2CCCCC2)cc1 [Example 67, (4-Chloro-phenyl)-[2-(3-piperidin-1-yl-propoxy)-benzyl]-amine]
1.2 nM	c1cc(OCCCN2CCCCC2)ccc1CN1CCCC1 [Example 48, 1-[3-(4-Pyrrolidin-1-ylmethyl-phenoxy)-propyl]-piperidine]
3.9 nM	OCCC1CCCCN1CCCOc1ccc(CN2CCCCC2)cc1 (stereo not shown) [Example 69, 2-{1-[3-(4-Piperidin-1-ylmethyl-phenoxy)-propyl]-piperidin-2-yl}-ethanol]
13 nM	c1cc(-c2ncc(OCCCN3CCCCC3)cn2)ccc1OCCCN1CCCCC1 [Example 33, 5-(3-Piperidin-1-yl-propoxy)-2-[4-(3-piperidin-1-yl-propoxy)-phenyl]-pyrimidine]
1.3 nM	c1ccc(CC2CCN(Cc3ccc(OCCCN4CCCCC4)cc3)CC2)cc1 [Example 93, 1-{3-[4-(4-Benzyl-piperidin-1-ylmethyl)-phenoxy]-propyl}-piperidine]
1.1 nM	CC1CCCCN1CCCOc1ccc(CN2CCCCC2)cc1 (stereo not shown) [Example 73, 2-Methyl-1-[3-(4-piperidin-1-ylmethyl-phenoxy)-propyl]-piperidine]
0.5 nM	c1cc(OCCCN2CCCCC2)ccc1OCCCN1CCCCC1 [Example 31, 1-{3-[4-(3-Piperidin-1-yl-propoxy)-phenoxy]-propyl}-piperidine]
1.5 nM	c1ccc(-c2ccc(OCCCN3CCCCC3)cc2)c(CN2CCCCC2)c1 [Example 34, 1-[3-(2′-Piperidin-1-ylmethyl-biphenyl-4-yloxy)-propyl]-piperidine]

Compound	Ki
OC1(c2ccccc2)CCN(Cc2ccc(OCCCN3CCCCC3)cc2)CC1 [Example 87, 4-Phenyl-1-[4-(3-piperidin-1-yl-propoxy)-benzyl]-piperidin-4-ol]	1 nM
c1ccc(N2CCN(Cc3ccc(OCCCN4CCCCC4)cc3)CC2)cc1 [Example 91, 1-Phenyl-4-[4-(3-piperidin-1-yl-propoxy)-benzyl]-piperazine]	1 nM

Same assay, conditions: 0.8 nM [3H]-N-methylhistamine, 45 min at 25° C., SK-N-MC cell membranes; […]; read-out: Ki

Compound	Ki
c1ccc(CN2CCN(Cc3ccc(OCCCN4CCCCC4)cc3)CC2)cc1 [Example 90, 1-Benzyl-4-[4-(3-piperidin-1-yl-propoxy)-benzyl]-piperazine]	0.9 nM
c1ccc2c(c1)CCN2C1CCN(Cc2ccc(OCCCN3CCCCC3)cc2)CC1 [Example 64, 1-{1-[4-(3-Piperidin-1-yl-propoxy)-benzyl]-piperidin-4-yl}-2,3-dihydro-1H-indole]	2 nM
c1ccc2c(c1)ncn2C1CCN(Cc2ccc(OCCCN3CCCCC3)cc2)CC1 [Example 60, 1-{1-[4-(3-Piperidin-1-yl-propoxy)-benzyl]-piperidin-4-yl}-1H-benzoimidazole]	2 nM
OCCC1CCN(Cc2ccc(OCCCN3CCCCC3)cc2)CC1 [Example 46, 2-{1-[4-(3-Piperidin-1-yl-propoxy)-benzyl]-piperidin-4-yl}-ethanol]	1.2 nM
c1ccc(N(CCN2CCCC2)C2CCN(Cc3ccc(OCCCN4CCCCC4)cc3)CC2)nc1 [Example 38, {1-[4-(3-Piperidin-1-yl-propoxy)-benzyl]-piperidin-4-yl}-pyridin-2-yl-(2-pyrrolidin-1-yl-ethyl)-amine]	1.2 nM
OC1(c2ccc(OCCCN3CCCCC3)cc2)CCN(Cc2ccccc2)CC1 [Example 22, 1-Benzyl-4-[4-(3-piperidin-1-yl-propoxy)-phenyl]-piperidin-4-ol]	0.9 nM
